Source: paper PMC8154566, “Scaffold-Hopping Strategy on a Series of Proteasome Inhibitors Led to a Preclinical Candidate for the Treatment of Visceral Leishmaniasis” (Journal of Medicinal Chemistry, 2021)
In brackets after ≈: the same amount, converted by molar mass. Like-named read-outs stand apart in the source and are kept apart here. Marks after values point to notes of the source that are not given here.

Tests used:
[1] = Kinetic aqueous solubility by CLND; type: physicochemical
Summary of the method: (§1)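 Intramacrophage L. donovani amastigotes in differentiated THP-1 cells, run per an earlier protocol but with 96 h compound exposure instead of 72 h. Aqueous solubility also follows a previously described method.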

LCK = LCK (Homo sapiens, UniProt P06239); assay: Kinase screen LCK; type: biochemical
Sequence of LCK (P06239 whole entry): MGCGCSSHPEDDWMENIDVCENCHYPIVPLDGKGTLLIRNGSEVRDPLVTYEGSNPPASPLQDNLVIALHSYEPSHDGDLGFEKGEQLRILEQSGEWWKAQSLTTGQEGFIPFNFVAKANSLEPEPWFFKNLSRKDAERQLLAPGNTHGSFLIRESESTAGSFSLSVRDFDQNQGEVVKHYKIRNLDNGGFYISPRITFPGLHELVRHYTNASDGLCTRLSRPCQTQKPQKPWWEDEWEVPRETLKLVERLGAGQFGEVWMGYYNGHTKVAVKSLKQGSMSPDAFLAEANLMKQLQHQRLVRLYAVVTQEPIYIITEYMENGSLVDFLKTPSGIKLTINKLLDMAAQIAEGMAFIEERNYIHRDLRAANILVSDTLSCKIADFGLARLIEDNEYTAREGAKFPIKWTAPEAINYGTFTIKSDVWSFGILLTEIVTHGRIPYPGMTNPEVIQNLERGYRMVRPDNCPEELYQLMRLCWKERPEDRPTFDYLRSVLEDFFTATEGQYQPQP

PI3Kγ = PI3Kγ (Homo sapiens, UniProt P48736); assay: Kinase screen PI3Kγ; type: biochemical
Sequence of PI3Kγ (P48736 whole entry): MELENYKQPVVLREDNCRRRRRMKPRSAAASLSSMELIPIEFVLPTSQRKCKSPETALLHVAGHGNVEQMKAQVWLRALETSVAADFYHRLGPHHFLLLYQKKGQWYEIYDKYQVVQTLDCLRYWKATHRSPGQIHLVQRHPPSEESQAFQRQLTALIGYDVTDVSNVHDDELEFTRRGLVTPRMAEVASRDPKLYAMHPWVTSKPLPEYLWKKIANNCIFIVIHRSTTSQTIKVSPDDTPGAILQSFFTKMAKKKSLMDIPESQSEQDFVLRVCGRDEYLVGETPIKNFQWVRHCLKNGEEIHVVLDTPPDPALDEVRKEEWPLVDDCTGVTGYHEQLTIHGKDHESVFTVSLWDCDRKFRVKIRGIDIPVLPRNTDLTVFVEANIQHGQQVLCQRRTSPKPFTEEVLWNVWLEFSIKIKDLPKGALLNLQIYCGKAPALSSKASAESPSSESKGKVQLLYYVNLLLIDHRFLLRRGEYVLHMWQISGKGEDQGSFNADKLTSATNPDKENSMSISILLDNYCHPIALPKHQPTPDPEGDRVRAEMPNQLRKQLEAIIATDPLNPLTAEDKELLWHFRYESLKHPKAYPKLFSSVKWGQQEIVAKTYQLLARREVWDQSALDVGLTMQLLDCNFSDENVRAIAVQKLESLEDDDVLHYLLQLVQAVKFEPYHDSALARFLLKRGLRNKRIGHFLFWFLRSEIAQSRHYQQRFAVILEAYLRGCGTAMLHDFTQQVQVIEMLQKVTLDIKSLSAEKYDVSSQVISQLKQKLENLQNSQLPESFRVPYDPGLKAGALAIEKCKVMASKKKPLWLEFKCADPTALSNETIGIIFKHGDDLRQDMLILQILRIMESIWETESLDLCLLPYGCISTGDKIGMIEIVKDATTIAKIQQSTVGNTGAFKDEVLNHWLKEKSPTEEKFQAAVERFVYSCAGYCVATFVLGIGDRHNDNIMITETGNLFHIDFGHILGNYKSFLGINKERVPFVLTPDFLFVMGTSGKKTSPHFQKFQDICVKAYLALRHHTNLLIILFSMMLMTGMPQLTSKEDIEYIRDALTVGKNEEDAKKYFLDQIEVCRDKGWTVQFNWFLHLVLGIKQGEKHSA

AuroraB = AuroraB (Homo sapiens, UniProt Q96GD4); assay: Kinase screen AuroraB; type: biochemical
Sequence of AuroraB (Q96GD4 whole entry): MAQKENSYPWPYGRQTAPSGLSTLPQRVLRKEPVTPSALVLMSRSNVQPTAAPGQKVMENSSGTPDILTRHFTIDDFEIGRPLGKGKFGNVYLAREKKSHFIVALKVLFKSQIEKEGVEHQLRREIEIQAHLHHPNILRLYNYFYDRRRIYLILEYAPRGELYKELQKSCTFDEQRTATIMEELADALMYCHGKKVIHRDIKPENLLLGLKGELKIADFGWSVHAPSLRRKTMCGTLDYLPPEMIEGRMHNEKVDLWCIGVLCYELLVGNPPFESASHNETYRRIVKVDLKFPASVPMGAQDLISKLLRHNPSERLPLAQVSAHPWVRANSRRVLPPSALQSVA

L. donovani amastigotes [2] = conditions: cited from earlier work; for LdInMac pIC50: supplementary csv, flagged as reported previously in the main tables
THP-1 cells [3] = conditions: cited from earlier work; for THP1 pIC50: supplementary csv, flagged as reported previously in the main tables
[4] = set-up: method as in PMID 30962368; conditions: cited from earlier work
[5] = set-up: method as in PMID 30962368; conditions: dosed in rats at 300 mg/kg; cited from earlier work
[6] = cited from earlier work
L. donovani amastigotes [7] = assay: INMAC assay: intramacrophage L. donovani in differentiated THP-1 cells; type: cell-based, Leishmania donovani; conditions: for EC90 / IC50 / EC50: Leishmania donovani; for EC90 / EC50: THP-1; for EC90: INMAC; for IC50: THP-1, read-out: LdInMac pIC50 (converted); for EC50: read-out: INMAC pEC50 (converted)
Summary of the method: as §1

in vivo = type: in vivo; conditions: mouse
Procedure: Intramacrophage L. donovani Assay. This assay was conducted as previously described, except for compound exposure time, which was 96 h instead of 72 h.4 […]
All regulated procedures on living animals were carried out under the authority of a project license issued by the Home Office under the Animals (Scientific Procedures) Act 1986, as amended in 2012 (and in compliance with EU Directive EU/2010/63). Infected animals had access to food and water ad libitum and were housed under a 12 hour light/dark photoperiod. Animals used in these experiments were female NMRI and Balb/c mice (Harlan, UK).
Test compound DDD01008714 was dosed orally (P.O.) at 10 mg free base/kg (dose volume 10 mL/kg; dose vehicle: 10% (vol/vol) dimethyl sulfoxide (DMSO), 40% polyethylene glycol 400 (PEG400) and 50% deionized water) to female NMRI mice (n = 3) or intravenously (I.V.) at 3 mg free base/kg (dose volume 5 mL/kg; dose vehicle: 10% (vol/vol) dimethyl sulfoxide (DMSO) and 90% Saline) to female Balb/c mice (n = 3). Blood samples (10 μL) where taken from the tail vein of […]
samples for I.V. leg only) and mixed with two volumes of deionized water (20 μL). After suitable sample preparation, the concentration of test compound in the whole blood from treated mice was determined by UPLC-MS/MS using a Quattro Premier XE (Waters, USA). Pharmacokinetic parameters were derived from the mean blood concentration time curve using PK solutions software v 2.0 (Summit Research Services, USA). […]
of concentration vs. Time for 4, dosed at 10 mg/kg. Extrapolated to 50 mg/kg assuming a linear dose increase, showing potential coverage above EC90 for approximately 6 hours […]
(1 picture or pasted object on this page, not shown here)

[8] = test system: infected mouse model of VL; assay: Infected mouse model of VL; type: in vivo; conditions: 50 mg/kg ip, b.i.d for 5 days
Procedure: In vivo Mouse Efficacy Studies. In vivo studies were carried out as previously described, with minor modifications.7 Briefly: Control drug used was Miltefosine (30 mg/kg orally, twice daily for 5 days), vehicle used was 10% (v/v) dimethyl sulfoxide (DMSO), 40% polyethylene glycol 400, and 50% deionized water (10 Ml/kg orally, twice daily for 5 days) and mice were treated with test compound intraperitoneally (50 mg/kg twice daily for 5 days).

[9] = set-up: method as in PMID 30962368; conditions: after 3 h; cited from earlier work
[10] = set-up: method as in PMID 30962368; conditions: after 3 h; cited from earlier work; remark: listed apart in the source
THP-1 cells [11] = assay: THP-1 host cell read-out of the INMAC assay; type: cell-based; conditions: Homo sapiens, THP-1; for EC50: read-out: THP-1 pEC50 (converted); for IC50: supplementary csv, read-out: THP1 pIC50 (converted)
Summary of the method: as §1

[12] = FaSSIF (fasted state simulated intestinal fluid) solubility; type: physicochemical
[13] = Mouse liver microsomal intrinsic clearance; type: in vitro ADME; conditions: for Mouse CLi: mouse liver microsomes; for Cli (mouse, ml/min/g): supplementary csv
[14] = supplementary csv; flagged as reported previously in Table 5; cited from earlier work
[15] = Table 6, kinetic, CLND, read-out: Aq. solubility
[16] = female, Balb/c, in vivo, iv PK 3 mg/kg
[17] = female, NMRI, in vivo, po PK 10 mg/kg
[18] = Table 5, at least three replicates, SD ≤0.4
[19] = Table 6, at least three replicates, SD ≤0.4
[20] = supplementary csv, read-out: Aqueous Solubility

O=C(Nc1ccc(F)c(-c2ccn3c(N4CCOCC4)cnc3n2)c1)N1CCCC1 [Compound 1]
solubility [1, 15]: 420 µM (≈ 172 µg/mL) | pIC50 LCK (LCK): < 4.5 | pIC50 PI3Kγ (PI3Kγ): < 4.5 | pIC50 AuroraB (AuroraB): < 4.5 | INMAC pEC50 (L. donovani amastigotes [2]; Table 5): 5.8 | LdInMac pIC50 (L. donovani amastigotes [2]): 5.8 | THP-1 pEC50 (THP-1 cells [3]; Table 5): <4.3 | THP1 pIC50 (THP-1 cells [3]): <4.3 | Ames assay result [4]: negative | predicted safety margin [5]: at least 37 fold | Mouse CLi ([6]; Table 6, mouse liver microsomes): 0.8^e mL/min/g

O=C(Nc1ccc(F)c(-c2cn3cc(N4CCOCC4)cnc3n2)c1)N1CCCC1 [Compound 4]
EC90 (L. donovani amastigotes [7]; pEC90 5.7 expressed as concentration, read-out: EC90): 0.78 mg/L | EC90 (L. donovani amastigotes [7]; read-out: pEC90 (converted)): 2 µM | solubility ([1]; Table 1, kinetic solubility, CLND, read-out: aqueous solubility): 150 µM (≈ 61.6 µg/mL) | solubility ([1]; Table 2, kinetic, CLND, read-out: Aq. solubility): 150 µM (≈ 61.6 µg/mL) | AUC at 24 h (in vivo; [16]): 2.25 µg·h/mL | half-life at 24 h (in vivo; [16]): 30 min | bioavailability at 24 h (in vivo; female, NMRI, in vivo, po PK 10 mg/kg vs iv 3 mg/kg): 57% | AUC at 24 h (in vivo; [17]): 4.3 µg·h/mL | Cmax at 24 h (in vivo; [17]): 1.3 µg/mL | Tmax at 24 h (in vivo; [17]): 30 min | Clb (in vivo; iv PK 3 mg/kg): 1.32 L/h/kg | Vdss (in vivo; listed under po PK (10 mg/kg)): 0.8 L/kg | time with blood levels above EC90 (in vivo; oral dose of 10 mg/kg): around 2 h | % reduction in parasitemia [8]: 98% | INMAC pEC50 (L. donovani amastigotes [2]; Table 1, five independent replicates, SD ≤0.2): 6.2 | INMAC pEC50 (L. donovani amastigotes [2]; Table 2): 6.2^e | LdInMac pIC50 (L. donovani amastigotes [2]): 6.2 | THP-1 cells pEC50 (THP-1 cells [3]; Table 1): <4.3 | THP1 pIC50 (THP-1 cells [3]): <4.3 | mouse plasma stability, compound remaining [9]: 100% | human plasma stability, compound remaining [10]: 100% | Ames assay result [4]: positive | CLi ([6]; Table 1, mouse liver microsomes): <0.5 mL/min/g | Mouse CLi ([6]; Table 2, mouse liver microsomes): <0.5^e mL/min/g | Cli (mouse, ml/min/g) ([6]; supplementary csv, mouse, flagged as reported previously in the main tables): <0.5 mL/min/g

O=C(Nc1cccc(-c2nc3ncccc3o2)c1)c1ccco1 [Compound 3]
INMAC pEC50 (L. donovani amastigotes [2]; Table 3): 5.2 | THP-1 pEC50 (THP-1 cells [3]; Table 3): <4.3

O=C(Nc1ccc(F)c(-c2cn3ncc(N4CCOCC4)cc3n2)c1)N1CCCC1 [Compound 15, N-[4-Fluoro-3-(7-morpholinoimidazo[1,2-b]pyridazin-2-yl)phenyl]pyrrolidine-1-carboxamide]
IC50 (L. donovani amastigotes [7]): > 50.1 µM | EC50 (L. donovani amastigotes [7]; [18]): > 50.1 µM | INMAC pEC50 (L. donovani amastigotes [7]; [18]): inactive | EC50 (THP-1 cells [11]; Table 5): > 50.1 µM | IC50 (THP-1 cells [11]): > 50.1 µM | solubility ([1]; Table 5, kinetic, CLND, read-out: Aq. solubility): 58 µM (≈ 23.8 µg/mL) | solubility at 4 h ([12]; pH 6.5, Table 5): 22 µM (≈ 9.03 µg/mL) | Mouse CLi ([13]; Table 5): 2.0 mL/min/g | Cli (mouse, ml/min/g) [13]: 2 mL/min/g

O=C(Nc1ccc(F)c(-c2ccn3c(N4CCNCC4)cnc3n2)c1)N1CCCC1 [Compound 35, N-(4-Fluoro-3-(3-(piperazin-1-yl)imidazo[1,2-a]pyrimidin-7-yl)phenyl)pyrrolidine-1-carboxamide]
IC50 (L. donovani amastigotes [7]): > 50.1 µM | EC50 (L. donovani amastigotes [7]; [19]): > 50.1 µM | EC50 (THP-1 cells [11]; Table 6): > 50.1 µM | IC50 (THP-1 cells [11]): > 50.1 µM | solubility [1, 15]: ≥ 333 µM | solubility [1, 20]: ≥ 330 µM | solubility at 4 h ([12]; pH 6.5, Table 6): 5 µM (≈ 2.05 µg/mL) | Mouse CLi ([13]; Table 6): <0.5 mL/min/g | Cli (mouse, ml/min/g) [13]: <0.5 mL/min/g

O=C(Nc1ccc(F)c(-c2nc3cc(N4CCOCC4)cnn3n2)c1)N1CCCC1 [Compound 24, N-(4-Fluoro-3-(7-morpholino-[1,2,4]triazolo[1,5-b]pyridazin-2-yl)phenyl)pyrrolidine-1-carboxamide]
INMAC pEC50 (L. donovani amastigotes [2]; Table 5): 6.1 | LdInMac pIC50 (L. donovani amastigotes [2]): 6.1 | THP-1 pEC50 (THP-1 cells [3]; Table 5): <4.3 | THP1 pIC50 (THP-1 cells [3]): <4.3 | Aqueous Solubility [14]: 420 µM

CC1CN(c2cnc3nc(-c4cc(NC(=O)N5CCCC5)ccc4F)ccn23)CCO1 (stereo not shown) [Compound 38, N-(4-Fluoro-3-(3-(2-methylmorpholino)imidazo[1,2-a]pyrimidin-7-yl)phenyl)pyrrolidine-1-carboxamide]
EC50 (L. donovani amastigotes [7]; [19]): 0.794 µM | EC50 (THP-1 cells [11]; Table 6): 50.1 µM | IC50 (THP-1 cells [11]): 50.1 µM | solubility [1, 15]: 248 µM (≈ 105 µg/mL) | solubility [1, 20]: 250 µM (≈ 106 µg/mL) | solubility at 4 h ([12]; pH 6.5, Table 6): 252 µM (≈ 107 µg/mL) | solubility ([12]; supplementary csv): 250 µM (≈ 106 µg/mL) | Mouse CLi ([13]; Table 6): 1.7 mL/min/g | Cli (mouse, ml/min/g) [13]: 1.7 mL/min/g
